Experimental data published in ChEMBL document CHEMBL1140835, “Design, synthesis, and in vitro antitumor activity of new 1,4-diarylimidazole-2-ones and their 2-thione analogues” (2008).

Columns and labels:
Type in all cases: functional
SK-MEL-5 = assay: Antiproliferative activity against human SK-MEL-5 cells
LOX IMVI = assay: Antiproliferative activity against human LOX IMVI cells; conditions: for TGI: read-out: pTGI (converted)
RXF 393 = assay: Antiproliferative activity against human RXF393 cells
EKVX = assay: Antiproliferative activity against human EKVX cells
SNB-75 = assay: Antiproliferative activity against human SNB75 cells
CAKI-1 = assay: Antiproliferative activity against human CAKI-1 cells
[1] = Antiproliferative activity against human […] cells
HCT-15 = assay: Antiproliferative activity against human HCT15 cells
CCRF-CEM = assay: Antiproliferative activity against human CCRF-CEM cells
SF-539 = assay: Antiproliferative activity against human SF539 cells
SR = assay: Antiproliferative activity against human SR cells; conditions: for TGI: read-out: pTGI (converted)
MOLT-4 = assay: Antiproliferative activity against human MOLT4 cells
HCT-116 = assay: Antiproliferative activity against human HCT116 cells
HOP-92 = assay: Antiproliferative activity against human HOP92 cells; conditions: for TGI: read-out: pTGI (converted)
HL-60 = assay: Antiproliferative activity against human HL60 cells
Hs-578T = assay: Antiproliferative activity against human HS578T cells
DU-145 = assay: Antiproliferative activity against human DU145 cells
SF-295 = assay: Antiproliferative activity against human SF295 cells
PC-3 = assay: Antiproliferative activity against human PC3 cells
RPMI-8226 = assay: Antiproliferative activity against human RPMI8226 cells
786-0 = assay: Antiproliferative activity against human 786-0 cells
UO-31 = assay: Antiproliferative activity against human UO31 cells
UACC-62 = assay: Antiproliferative activity against human UACC62 cells

COc1ccc(-c2cn(-c3ccc(Cl)cc3)c(=S)[nH]2)cc1OC
GI50 (SK-MEL-5): 3.16 µM | GI50 (LOX IMVI): 1.58 µM | LC50 (LOX IMVI): 6.31 µM | TGI (LOX IMVI): 3.16 µM | GI50 (RXF 393): 3.16 µM | GI50 (EKVX): 12.6 µM | GI50 (SNB-75): 15.8 µM | GI50 (CAKI-1): 3.16 µM | GI50 [1]: 6.31 µM | GI50 (HCT-15): 5.01 µM | GI50 (CCRF-CEM): > 100 µM | GI50 (SF-539): 31.6 µM | GI50 (SR): 3.16 µM | GI50 (MOLT-4): > 100 µM | GI50 (HCT-116): 3.98 µM | GI50 (HOP-92): 0.316 µM | TGI (HOP-92): 7.94 µM | GI50 (HL-60): 3.16 µM | GI50 (Hs-578T): 20 µM | GI50 (DU-145): 12.6 µM | GI50 (SF-295): 6.31 µM | GI50 (PC-3): 63.1 µM | GI50 (RPMI-8226): 3.98 µM | GI50 (786-0): 6.31 µM | GI50 (UO-31): 39.8 µM

COc1ccc(-n2cc(-c3cc(OC)c(OC)c(OC)c3)[nH]c2=O)cc1Cl
GI50 (SK-MEL-5): > 100 µM | GI50 (LOX IMVI): > 100 µM | GI50 (EKVX): > 100 µM | GI50 (SNB-75): 6.31 µM | GI50 (CAKI-1): > 100 µM | GI50 [1]: > 100 µM | GI50 (HCT-15): > 100 µM | GI50 (CCRF-CEM): > 100 µM | GI50 (UACC-62): 50.1 µM | GI50 (SF-539): 31.6 µM | GI50 (SR): 50.1 µM | GI50 (MOLT-4): > 100 µM | GI50 (HCT-116): > 100 µM | GI50 (HOP-92): 15.8 µM | GI50 (HL-60): > 100 µM | GI50 (Hs-578T): 31.6 µM | GI50 (SF-295): 39.8 µM | GI50 (PC-3): > 100 µM | GI50 (RPMI-8226): > 100 µM | GI50 (786-0): 25.1 µM | GI50 (UO-31): > 100 µM

COc1ccc(/C=C\c2cc(OC)c(OC)c(OC)c2)cc1O [COMBRETASTATIN A4]
GI50 (SK-MEL-5): 0.01 µM | GI50 (LOX IMVI): 0.01 µM | TGI (LOX IMVI): 12.6 µM | GI50 (RXF 393): 0.794 µM | GI50 (EKVX): 0.398 µM | GI50 (SNB-75): 0.794 µM | GI50 (CAKI-1): 0.0398 µM | GI50 [1]: 50.1 µM | GI50 (HCT-15): 0.0316 µM | GI50 (CCRF-CEM): 0.1 µM | GI50 (UACC-62): 0.01 µM | GI50 (SF-539): 0.0398 µM | GI50 (SR): 0.126 µM | TGI (SR): 79.4 µM | GI50 (MOLT-4): 0.1 µM | GI50 (HCT-116): 0.0316 µM | GI50 (HOP-92): 0.2 µM | TGI (HOP-92): 39.8 µM | GI50 (Hs-578T): 0.158 µM | GI50 (DU-145): 0.01 µM | GI50 (SF-295): 0.0631 µM | GI50 (PC-3): 0.0316 µM | GI50 (RPMI-8226): 0.158 µM | GI50 (786-0): 0.0199 µM | GI50 (UO-31): 0.2 µM

COc1ccc(-n2cc(-c3cc(OC)c(OC)c(OC)c3)[nH]c2=S)cc1Cl
GI50 (SK-MEL-5): 25.1 µM | GI50 (LOX IMVI): 6.31 µM | GI50 (RXF 393): 15.8 µM | GI50 (EKVX): 39.8 µM | GI50 (SNB-75): 20 µM | GI50 (CAKI-1): 5.01 µM | GI50 [1]: 31.6 µM | GI50 (HCT-15): > 100 µM | GI50 (CCRF-CEM): 0.631 µM | GI50 (UACC-62): > 100 µM | GI50 (SF-539): 20 µM | GI50 (MOLT-4): > 100 µM | GI50 (HCT-116): 25.1 µM | GI50 (HOP-92): 31.6 µM | GI50 (HL-60): > 100 µM | GI50 (Hs-578T): 15.8 µM | GI50 (DU-145): 31.6 µM | GI50 (SF-295): 39.8 µM | GI50 (PC-3): 50.1 µM | GI50 (RPMI-8226): 5.01 µM | GI50 (786-0): 25.1 µM | GI50 (UO-31): 39.8 µM

COc1cc(-n2cc(-c3ccc(Cl)cc3)[nH]c2=O)cc(OC)c1OC
GI50 (SK-MEL-5): 31.6 µM | GI50 (LOX IMVI): 63.1 µM | GI50 (EKVX): 31.6 µM | GI50 (SNB-75): 25.1 µM | GI50 (CAKI-1): 15.8 µM | GI50 (HCT-15): > 100 µM | GI50 (CCRF-CEM): < 0.01 µM | GI50 (UACC-62): 25.1 µM | GI50 (SF-539): 25.1 µM | GI50 (SR): > 100 µM | GI50 (MOLT-4): > 100 µM | GI50 (HCT-116): 31.6 µM | GI50 (HL-60): > 100 µM | GI50 (Hs-578T): 79.4 µM | GI50 (DU-145): 63.1 µM | GI50 (SF-295): 31.6 µM | GI50 (PC-3): 15.8 µM | GI50 (RPMI-8226): 12.6 µM | GI50 (786-0): 15.8 µM | GI50 (UO-31): 20 µM

COc1ccc(-c2cn(-c3ccc(OC)c(OC)c3)c(=O)[nH]2)cc1
GI50 (SK-MEL-5): 63.1 µM | GI50 (LOX IMVI): > 100 µM | GI50 (EKVX): > 100 µM | GI50 (SNB-75): 25.1 µM | GI50 (CAKI-1): > 100 µM | GI50 [1]: 50.1 µM | GI50 (HCT-15): > 100 µM | GI50 (CCRF-CEM): > 100 µM | GI50 (UACC-62): > 100 µM | GI50 (SF-539): > 100 µM | GI50 (SR): 0.1 µM | TGI (SR): 0.631 µM | GI50 (MOLT-4): 1.58 µM | GI50 (HCT-116): > 100 µM | GI50 (HOP-92): > 100 µM | GI50 (HL-60): 39.8 µM | GI50 (Hs-578T): > 100 µM | GI50 (DU-145): > 100 µM | GI50 (SF-295): > 100 µM | GI50 (PC-3): > 100 µM | GI50 (RPMI-8226): > 100 µM | GI50 (786-0): > 100 µM | GI50 (UO-31): > 100 µM
